Results on 18 molecules are retold here after patent US20260327195A1, “2-STYRYLBENZOTHIAZOLE DERIVATIVES AS ALPHA-SYNUCLEIN BINDING COMPOUNDS” (Eberhard Karls Universität Tübingen Medizinische Fakultät, priority 2023, published 2026).

“And” between values parts separate entries of the source, which are not always exact repeats. Equal values may be shown once. Read-outs that look alike come from different tables or passages of the source. Bounds are passed on as bounds.

The target in assay [1] is T1, human recombinant αSYN fibrils (Homo sapiens, UniProt P37840). Kind of assay: [3H]PiB competition binding assay on αSYN fibrils. The settings on record: for Ki: competition against 6 nM [3H]PiB, read-out: Ki (mean ± SEM). How it is done: (§1) Concentrations of αSYN and Aβ1-42 fibrils were as described above.
Plates were incubated on a shaker (MaxQ 6000, Thermo Fisher Scientific Inc., Marietta, OH, USA) at 50 rpm for 2 hours at 37° C., covered by removable sealing tapes (PerkinElmer, Waltham, MA, USA). […] Data points were fitted using non-linear regression analysis in GraphPad Prism (GraphPad Software, Inc., Version 8.4.0, La Jolla, USA).

Assay [2] has as its target T2, Aβ plaques in AD human brain slices (Homo sapiens, UniProt P05067).
T2 construct: mainly Abeta40/42 cut from APP) in post-mortem AD frontal cortex slices
In words: In vitro autoradiography on AD human brain slices (frontal cortex). In kind it is binding. How it is done: (§2) Post-mortem human brain slices (10 μm thickness) were obtained from and the subject cases were analyzed by the Neurobiobank München (NBM, Munich, Germany), where tissues were collected on the basis of written informed consent according to the guidelines of the ethics committee of the Ludwig-Maximilians-University Munich, Germany (#345-13). The use of brain tissue samples in this study was approved by the ethics committee of the Faculty of Medicine at the University of Tuebingen (Ethics approval number: 813/2018BO2). Table 1 summarizes the information of the subjects from which samples were obtained and used in the experiment.
(§3) For autoradiography, brain slices were thawed for one hour before pre-incubation in BSA buffer for 25 minutes at room temperature. To determine total binding (TB), brain slices were incubated with the tracer (10 nM [^18F]PFSB, 10 nM [^18F]MFSB). Incubation of consecutive slices with the correspondent non-radioactive compounds (10 μM PFSB, […]) was performed to determine non-specific binding (NSB). The non-radioactive compounds were prepared by dissolving in DMSO to 10 mM, which yielded DMSO concentration of ≤0.1% in the final solution. Incubation was carried out for one hour at room temperature with subsequent washing in cold BSA buffer (three times for ten minutes) followed by three dipping in cold deionized water. After drying under UV lamps, brain slices were exposed to a storage phosphor screen (Molecular Dynamics, Caesarea, Israel) for 18 hours, which was then scanned in a phosphor imager (STORM 840, Molecular dynamics, Sunnyvale, CA, USA).
(§4) Quantitative data analysis was performed by drawing four regions of interest (ROIs) in relevant areas of the slice and one ROI next to it for background subtraction (ImageJ 1.8.0_172, National Institute of Health, Bethesda, Maryland, USA) (Schneider, C. A. et al., NIH Image to ImageJ: 25 years of image analysis; Nat Methods 2012, 9 (7), 671-5). Specific binding (SB) is obtained by subtracting NSB from TB. The SB disease/SB control ratio was calculated by dividing by the SB in diseased tissues with the respective SB in control tissues.

Assay [3] deals with αSYN pathology in MSA human brain slices (Homo sapiens, UniProt P37840). Kind of assay: In vitro autoradiography on MSA human brain slices (cerebellum). It counts as binding. The method, then: as §2, §3, §4
Assay [4] concerns the target αSYN pathology in PD human brain slices (Homo sapiens, UniProt P37840). In words: In vitro autoradiography on PD human brain slices (frontal cortex). In kind it is binding. The settings on record: 10 nM tracer; NSB with 10 μM non-radioactive compound. The method, then: as §2
For autoradiography, brain slices were thawed for one hour before pre-incubation in BSA buffer for 25 minutes at room temperature. To determine total binding (TB), brain slices were incubated with the tracer (10 nM [^18F]PFSB, 10 nM [^18F]MFSB). […]
Quantitative data analysis was performed by drawing four regions of interest (ROIs) in relevant areas of the slice and one ROI next to it for background subtraction (ImageJ 1.8.0_172, National Institute of Health, Bethesda, Maryland, USA) (Schneider, C. A. et al., NIH Image to ImageJ: 25 years of image analysis; Nat Methods 2012, 9 (7), 671-5). […] The SB disease/SB control ratio was calculated by dividing by the SB in diseased tissues with the respective SB in control tissues.

Assay [5] deals with T1, human recombinant αSYN fibrils. In words: [3H]MODAG-001 competition binding assay on αSYN fibrils. The settings on record: for competition with [3H]MODAG-001: result in words. How it is done:
as §1
Plates were incubated on a shaker (MaxQ 6000, Thermo Fisher Scientific Inc., Marietta, OH, USA) at 50 rpm for 2 hours at 37° C., covered by removable sealing tapes (PerkinElmer, Waltham, MA, USA). Vacuum filtration and read-out were performed as disclosed in Kuebler, L. et al., [^11C]MODAG-001-towards a PET tracer targeting α-synuclein aggregates; European Journal of Nuclear Medicine and Molecular Imaging 2020, 48, 1759-1772. […] Data points were fitted using non-linear regression analysis in GraphPad Prism (GraphPad Software, Inc., Version 8.4.0, La Jolla, USA).

The target in assay [6] is T3, synthetic human Aβ1-42 fibrils (Homo sapiens, UniProt P05067).
T3 construct: chain cut from APP
In words: [3H]PiB competition binding assay on Aβ fibrils. The settings on record: result in words; FIG. 4b, 6b. The text has this:
The method for Aβ1-42 fibrils generation was adapted from Bagchi, D. P. et al., Binding of the radioligand SIL23 to alpha-synuclein fibrils in Parkinson disease brain tissue establishes feasibility and screening approaches for developing a Parkinson disease imaging agent; PLoS One 2013, 8 (2), e55031, and described in Kuebler, L. et al., [^11C]MODAG-001-towards a PET tracer targeting α-synuclein aggregates; European Journal of Nuclear Medicine and Molecular Imaging 2020, 48, 1759-1772. Synthetic lyophilized human Aβ1-42 peptide (5 mg) with >90% purity (EMC Microcollections, Tuebingen, Germany) was dissolved in DMSO (221.5 μL), followed by the addition of deionized water (4.1 mL) and 1 M Tris-HCl (111 μL, pH 7.6) to reach a final monomeric concentration of 250 μM. Aggregation was induced by incubation in Eppendorf Thermomixer at 37° C. with shaking at 800 rpm for 72 hours. […]
Plates were incubated on a shaker (MaxQ 6000, Thermo Fisher Scientific Inc., Marietta, OH, USA) at 50 rpm for 2 hours at 37° C., covered by removable sealing tapes (PerkinElmer, Waltham, MA, USA). Vacuum filtration and read-out were performed as disclosed in Kuebler, L. et al., [^11C]MODAG-001-towards a PET tracer targeting α-synuclein aggregates; European Journal of Nuclear Medicine and Molecular Imaging 2020, 48, 1759-1772. […]

The mark [7] stands for this setting: methylated compounds, two data points.
Where [8] appears, read: 10 nM tracer, NSB with 10 μM non-radioactive compound.
Setting [9] is: non-methylated compounds, two data points (three for 9a, 14a, 15a, 17a, 18a; single for 12a).

T2 sequence (P05067 672-713 limits assumed): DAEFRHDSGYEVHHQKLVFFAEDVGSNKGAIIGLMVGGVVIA
T3 sequence (P05067 672-713): as the sequence (P05067 672-713 limits assumed) above

Consider `C[n+]1c(C=Cc2ccc(N3CCCCC3)cc2)sc2c(F)cccc21` [Compound 12b, 7-fluoro-3-methyl-2-(4-(piperidin-1-yl)styryl)benzo[d]thiazol-3-ium Iodide], for which the inhibitory constant (Ki) in assay [1] (setting [7]) is above 400 nM.
Same read-out and setting: in the case of `C[n+]1c(C=Cc2ccc(N3CCOCC3)cc2)sc2ccccc21` [Compound 15b, 3-methyl-2-(4-morpholinostyryl)benzo[d]thiazol-3-ium Iodide] it was above 400 nM; in that of `C[n+]1c(C=Cc2ccc(N3CCC(F)CC3)cc2)sc2ccccc21` [Compound 18b, 2-(4-(4-fluoropiperidin-1-yl)styryl)-3-methylbenzo[d]thiazol-3-ium Iodide], above 400 nM.
Take `[18F]c1ccc2nc(/C=C/c3ccc(N4CCCCC4)cc3)sc2c1` [[^18F]PFSB]: the “SB disease/SB control, AD/frontal cortex ctrl” value in assay [2] (setting [8]) is 1.06 and 1.03. The “binding in AD brain regions with Aβ plaques / AD/frontal cortex SB ratio in words” value in assay [2] (result in words, FIG. 12) is “no increased binding”. Moreover, in assay [3] (setting [8]), the “SB disease/SB control, MSA1/cerebellum ctrl” value worked out at 3.73 and the “SB disease/SB control, MSA2/cerebellum ctrl” value was 4.15. In assay [3] (MSA patients, same brain area, 10 nM tracer), the “specific binding ratio of MSA brain slices compared to the control” value was 3.94±0.30. Further, the “selectivity towards αSYN over Aβ” value in assay [3] (autoradiography, result in words, FIG. 12) is given as “selectivity towards αSYN over Aβ”. Besides, in assay [3] (result in words, FIG. 12), the “affinity to αSYN pathology” value was “displayed affinity to αSYN pathology”. Besides, the “SB disease/SB control, PD/frontal cortex ctrl” value in assay [4] turned out to be 1.51.
As for `CN(C)c1ccc(C=Cc2sc3ccccc3[n+]2C)cc1` [Compound 19b, 2-(4-(dimethylamino)styryl)-3-methylbenzo[d]thiazol-3-ium Iodide], the Ki in assay [1] (setting [7]) is above 400 nM.
Take `COc1cccc2nc(C=Cc3ccc(N4CCCCC4)cc3)sc12` [Compound 11a, 7-methoxy-2-(4-(piperidin-1-yl)styryl)benzo[d]thiazole]: the Ki in assay [1] (setting [9]) is above 400 nM.
For the molecule `CN(C)c1ccc(C=Cc2nc3ccccc3s2)cc1` [Compound 19a, 4-(2-(benzo[d]thiazol-2-yl)vinyl)-N,N-dimethylaniline], the inhibition constant Ki in assay [1] (setting [9]) is above 400 nM.
Still for that read-out and setting: for `COc1cccc2sc(C=Cc3ccc(N4CCCCC4)cc3)nc12` [Compound 2a, 4-methoxy-2-(4-(piperidin-1-yl)styryl)benzo[d]thiazole] the value was above 400 nM.
Consider `C[n+]1c(C=Cc2ccc(N3CCSCC3)cc2)sc2ccccc21` [Compound 16b, 3-methyl-2-(4-thiomorpholinostyryl)benzo[d]thiazol-3-ium Iodide], for which the Ki in assay [1] (setting [7]) was above 400 nM.
For the molecule `Fc1ccc2nc(C=Cc3ccc(N4CCOCC4)cc3)sc2c1` [Compound 45, 4-(4-(2-(6-fluorobenzo[d]thiazol-2-yl)vinyl)phenyl)morpholine], the “improvement of affinity (Ki) of MFSB compared to PFSB” value in assay [1] ([3H]PiB competition, versus PFSB) is listed as 2.5 factor. Besides, the “fold lower Ki of MFSB than PFSB” value in assay [5] ([3H]MODAG-001 competition, versus PFSB) is listed as 4.6 fold. In assay [5], the “competition with [3H]MODAG-001” value is listed as “moderate to good competition”.
Turning to `C[n+]1c(-c2ccc(N3CCCCC3)cc2)sc2ccccc21` [Compound 13b, 3-methyl-2-(4-(piperidin-1-yl)phenyl)benzo[d]thiazol-3-ium], the inhibition constant (Ki) in assay [1] (setting [7]) was above 400 nM.
Take `Fc1ccc2nc(C=CC=Cc3ccc(N4CCCCC4)cc3)sc2c1` [Compound 43, 6-fluoro-2-(4-(4-(piperidin-1-yl)phenyl)buta-1,3-dien-1-yl)benzo[d]thiazole]: the “competition with [3H]PiB / binding to Aβ fibrils” value in assay [6] is listed as “the binding to Aβ remained low”.
Consider `Fc1ccc2nc(C=CC=Cc3ccc(N4CCCC4)cc3)sc2c1` [Compound 44, 6-fluoro-2-(4-(4-(pyrrolidin-1-yl)phenyl)buta-1,3-dien-1-yl)benzo[d]thiazole], for which the “competition with [3H]PiB / binding to Aβ fibrils” value in assay [6] is listed as “the binding to Aβ remained low”.
`Cc1cccc2nc(C=Cc3ccc(N4CCCCC4)cc3)sc12` [Compound 10a, 7-methyl-2-(4-(piperidin-1-yl)styryl)benzo[d]thiazole]: the Ki in assay [1] (setting [9]) was above 400 nM.
For `CN1CCN(c2ccc(C=Cc3sc4ccccc4[n+]3C)cc2)CC1` [RB2, 3-methyl-2-(4-(4-methylpiperazin-1-yl)styryl)benzo[d]thiazol-3-ium Iodide, reference compound], the Ki in assay [1] (setting [7]) was above 400 nM.
Turning to `C(=Cc1nc2ccccc2s1)c1ccc(N2CCOCC2)cc1` [Compound 15a, 4-(4-(2-(benzo[d]thiazol-2-yl)vinyl)phenyl)morpholine], the “affinity relative to N-piperidine analog 20” value in assay [1] (result in words) is “comparable affinity”.
`C[n+]1c(C=Cc2ccc(N3CCCCC3)cc2)sc2cccc(F)c21` [Compound 3b, 4-fluoro-3-methyl-2-(4-(piperidin-1-yl)styryl)benzo[d]thiazol-3-ium 4-nitrobenzenesulfonate]: in assay [1] (setting [7]), the Ki was above 400 nM.
Turning to `Fc1ccc2nc(C=Cc3ccc(N4CCCCC4)cc3)sc2c1` (mixture of isomers) [Compound 9a, 6-fluoro-2-(4-(piperidin-1-yl)styryl)benzo[d]thiazole], the “competition with [3H]MODAG-001” value in assay [5] is reported as “moderate to good competition”.

One may read the Ki as a dissociation constant, usually derived from enzyme kinetics or from competition with a known ligand.
